Earlier results in publication PMC11765717, “In Vitro Insights into Bacteriocin-Mediated Modulation of Chicken Cecal Microbiota” (International Journal of Molecular Sciences, 2025).

Experiments:
L. ivanovii = tested on: L. ivanovii; parameters: method as in PMID 35170996; conditions: sensitive strain L. ivanovii; ref [64]; cited from earlier work
[1] = ref [67],[76]; cited from earlier work

Substance: Pediocin PA-1 (M31L) (KYYGNGVTCGKHSCSVDWGKATTCIINNGALAWATGGHQGNHKC; UniProt P29430 19-62, looked up, variant M31L)
- MIC (µg/mL) (L. ivanovii): 0.09 µg/mL
- Antibacterial activity in conditions mimicking the small intestine, in words [1]: losing its antibacterial activity completely
